Source: US7238716B2, “Alkanoic acid derivatives process for their production and use thereof” (Takeda Pharmaceuticals Company Limited, priority 2000, dated 2007)
Read-outs that look alike come from different tables or passages of the source.

Tests used:
[1] = system: KKAY mice; test: Hypoglycemic and hypolipidemic actions in mice (Test Example 1); format: in vivo; conditions: Mus musculus, po, 96 h, 0.005% in powdery diet, four days
Source text: Test compounds were mixed in a powdery diet (CE-2, Japan Clea) at the concentration of 0.01% (compounds of Examples 7, 26, 29, 32) or 0.005% (compounds of Examples 1, 11, 15, 18, 24, 36, 37, 41, 48, 50, 51, 52, 58, 62, 79, 83, 88, 90, 91, 92, 93, 97, 107, 110, 115, 119, 122, 125, 129 and 130), and freely given to KKAY mice (11 to 12 weeks old, 5 mice in a group), a model of type 2 diabetes mellitus, for four days. During this period, water was given freely. Blood was sampled from orbital venous plexus, and glucose and triglyceride levels in plasma separated from blood were determined enzymatically using L type Wako Glu2 (Wako Pure Chemical Industries, Ltd.) or L type Wako TG.H (Wako Pure Chemical Industries, Ltd.), respectively.
In the Table, “hypoglycemic action (%)” means a percent reduction (%) of the glucose level in the test compound administration group when that of the test compound non-administration group is taken as 100%. In addition, the “hypolipidemic action (%)” means a percent reduction (%) of the triglyceride level in the test compound administration group when that of the test compound non-administration group is taken as 100%.

[2] = target: T1, PPARγ-RXRα heterodimer (Homo sapiens, UniProt P37231); test: PPARγ-RXRα heterodimer ligand activity, luciferase reporter in PPARγ:RXRα:4ERPP/CHO-K1 cells (Test Example 3); format: cell-based; conditions: concentration for 50% of the maximum fold induction of luciferase activity; 48 hours, CHO-K1 cells
T1 construct: expressed in transfected cells; host or cells: CHO-K1
T1 sequence (P37231 1-477 isoform P37231-2): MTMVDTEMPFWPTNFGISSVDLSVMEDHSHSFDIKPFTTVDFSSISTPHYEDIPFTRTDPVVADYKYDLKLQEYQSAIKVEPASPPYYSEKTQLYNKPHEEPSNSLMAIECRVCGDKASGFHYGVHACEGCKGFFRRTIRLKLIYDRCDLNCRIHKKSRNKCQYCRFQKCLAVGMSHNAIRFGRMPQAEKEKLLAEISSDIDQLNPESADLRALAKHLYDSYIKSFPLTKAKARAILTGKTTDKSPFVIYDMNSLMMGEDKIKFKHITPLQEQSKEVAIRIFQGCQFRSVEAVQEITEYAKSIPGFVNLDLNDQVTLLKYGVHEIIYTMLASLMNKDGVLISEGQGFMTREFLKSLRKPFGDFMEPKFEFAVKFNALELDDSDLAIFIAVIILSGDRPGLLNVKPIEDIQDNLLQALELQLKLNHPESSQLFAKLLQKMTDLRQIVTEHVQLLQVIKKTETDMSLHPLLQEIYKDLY
T1 sequence (P19793 1-462 partner): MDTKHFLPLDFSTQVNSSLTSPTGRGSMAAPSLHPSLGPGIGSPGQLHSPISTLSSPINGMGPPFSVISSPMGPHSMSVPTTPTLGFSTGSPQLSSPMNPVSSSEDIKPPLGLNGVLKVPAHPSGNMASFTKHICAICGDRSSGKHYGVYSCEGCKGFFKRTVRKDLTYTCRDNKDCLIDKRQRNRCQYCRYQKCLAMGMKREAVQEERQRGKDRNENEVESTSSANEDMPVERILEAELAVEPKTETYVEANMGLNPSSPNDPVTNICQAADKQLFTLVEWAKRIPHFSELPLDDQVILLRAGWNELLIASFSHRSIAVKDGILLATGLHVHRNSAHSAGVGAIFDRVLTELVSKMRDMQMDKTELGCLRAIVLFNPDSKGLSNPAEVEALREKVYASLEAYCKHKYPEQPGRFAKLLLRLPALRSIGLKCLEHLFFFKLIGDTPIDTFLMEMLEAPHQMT
Method: A PPARγ:RXRα:4ERPP/CHO-K1 cells obtained in Reference Example 5 described later were cultured in HAM F12 medium (produced by NISSUI SEIYAKU) containing 10% Fetal bovine serum (produced by Life Technologies, Inc., USA) and then inoculated to a 96-well white plate (produced by Corning Costar Corporation, USA) at the density of 2×10^4 cells/well, and cultured in a CO2 gas incubator at 37° C. overnight.
After washing the 96 well white plate with PBS (Phosphate-buffered saline), 90 μl of HAM F12 medium containing 0.1% fatty acid-free bovine serum albumin (BSA) and 10 μl of test compound were added, which was cultured in a CO2 gas incubator at 37° C. for 48 hours. After removing the medium, 40 μl of PIKKAGENE 7.5 (produced by Wako Pure Chemical Industries, Ltd.) was added. After stirring, the luciferase activity was determined using Lumistar (produced by BMG Labtechnologies GmbH, Germany).
A fold induction was calculated based on the luciferase activity of each test compound by taking the luciferase activity in the test compound non administration group as 1. The values of the test compound, concentration and the fold induction were analyzed using PRISM 2.01 (produced by GraphPad Software Inc. USA) to calculate the EC50 values, the effective concentration of a test compound for 50% of the maximum fold induction.
After a CHO-K1 cell cultured in a 750 ml tissue culture flask (produced by Corning-Costar Corporation, USA) containing HAM F12 medium (produced by NISSUI SEIYAKU) supplemented with 10% Fetal Bovine Serum (produced by Life Technologies, Inc., USA) was scraped by treating with 0.5 g/L trypsin-0.2 g/L EDTA (ethylenediaminetetraacetic acid) (produced by Life Technologies, Inc., USA), the cell was washed with PBS (phosphate buffered saline) (produced by Life Technologies, Inc., USA), centrifuged (1000 rpm, 5 minutes), and then suspended in PBS. Subsequently, a DNA was introduced into the cell under the condition shown below using GENE PULSER (produced by Bio-Rad Laboratories, USA).
Namely, to a cuvette having a 0.4 cm gap, added were 8×10^6 cells and 10 μg of plasmid pVgRXR2-hPPARγ obtained in Reference Example 3 and 10 μg of reporter plasmid pGL3-4ERPP-TK neo obtained in Reference Example 4, which was subjected to electroporation at the voltage of 0.25 kV under the capacitance of 960 μF. Subsequently, the cell was transferred into a HAM F12 medium containing 10% Fetal Bovine. Serum and cultured for 24 hours. Then the cell was scraped again and centrifuged, and then suspended in HAM F12 medium containing 10% Fetal Bovine Serum supplemented with 500 μg/ml of GENETICIN (produced by Life Technologies, Inc., USA) and 250 μg/ml of ZEOCIN (produced by Invitrogen, USA). The suspension was diluted to the density of 10^4 cells/ml, and inoculated to a 96-well plate (produced by Corning Costar Corporation, USA), which was cultured in a CO2 gas incubator at 37° C., whereby obtaining a GENETICIN- and ZEOCIN-resistant transformant.
Subsequently, after the transformant cell line thus obtained was cultured in a 24-well plate (produced by Corning Costar Corporation, USA), selected was a cell line, PPARγ:RXRα:4ERPP/CHO-K1 cell, in which the luciferase was expressed and induced by addition of 10 μM pioglitazone hydrochloride.

[3] = percent reduction of plasma glucose level vs non-administration group, read-out: hypoglycemic action (%)
[4] = percent reduction of plasma triglyceride level vs non-administration group, read-out: hypolipidemic action (%)

| Structure (SMILES) | melting point | EC50 [2] | inhibition in vivo at 0.005 % [1, 3] | inhibition in vivo at 0.005 % [1, 4] |
| --- | --- | --- | --- | --- |
| Cc1oc(-c2ccco2)nc1COc1cc(COc2cccc(CC(=O)O)c2)ccn1 [Example 90] | 136 to 137 °C | 52 nM | 30% | 40% |
| Cc1oc(-c2ccccc2)nc1CCc1nc(COc2ccccc2CC(=O)O)co1 [Example 99, 2-[2-[[2-[2-(5-methyl-2-phenyl-4-oxazolyl)ethyl]-4-oxazolyl]methoxy]phenyl]acetic acid] | 109 to 110 °C | 160 nM |  |  |
| Cc1oc(-c2ccccc2)nc1CN(C(=O)OC(C)(C)C)c1ccc(COc2ccccc2CC(=O)O)cc1 [Example 60, 2-[2-[4-[(t-butoxycarbonyl)[(5-methyl-2-phenyl-4-oxazolyl)methyl]amino]benzyloxy]phenyl]acetic acid] |  | 6.1 nM |  |  |
| Cc1oc(-c2ccccc2)nc1CCc1nc(COc2cccc(CC(=O)O)c2)co1 [Example 101, 2-[3-[[2-[2-(5-methyl-2-phenyl-4-oxazolyl)ethyl]-4-oxazolyl]methoxy]phenyl]acetic acid] | 127 to 128 °C | 43 nM |  |  |
| CCOc1cc(OCc2cccc(OCc3nc(-c4ccccc4)oc3C)c2)ccc1CCC(=O)O [Example 71, 3-[2-ethoxy-4-[3-[(5-methyl-2-phenyl-4-oxazolyl)methoxy]benzyloxy]phenyl]propionic acid] | 122 to 123 °C | 330 nM |  |  |
| Cc1oc(-c2ccccc2)nc1CCc1nc(COc2ccccc2CC(=O)O)cs1 [Example 103, 2-[2-[[2-[2-(5-methyl-2-phenyl-4-oxazolyl)ethyl]-4-thiazolyl]methoxy]phenyl]acetic acid] | 152 to 153 °C | 240 nM |  |  |
| Cc1oc(-c2ccccc2)nc1COc1cc(COc2cccc(CC(=O)O)c2)on1 [Example 81, 2-[3-[3-(5-methyl-2-phenyl-4-oxazolylmethoxy)-5-isoxazolylmethloxy]phenyl]acetic acid] | 128 to 129 °C | 62 nM |  |  |
| Cc1oc(-c2ccccc2)nc1COc1cccc(CSc2ccc(CC(=O)O)cc2Cl)c1 [Example 142, 2-[3-chloro-4-[3-[(5-methyl-2-phenyl-4-oxazolyl)methoxy]benzylthio]phenyl]acetic acid] | 150 to 151 °C |  |  |  |

Now from value to compound, other results behind:

| melting point | EC50 [2] | Structure (SMILES) | inhibition in vivo at 0.005 % [1, 3] | inhibition in vivo at 0.005 % [1, 4] |
| --- | --- | --- | --- | --- |
| 109 to 110 °C | 70 nM | Cc1sc(-c2ccccc2)nc1COc1cc(COc2ncccc2CC(=O)O)on1 [Example 115, 2-[2-[[3-[(5-methyl-2-phenyl-4-thiazolyl)methoxy]-5-isoxazolyl]methoxy]-3-pyridyl]acetic acid] | 52% | 87% |
| 143 to 144 °C | 190 nM | Cc1oc(-c2ccccc2)nc1COc1cncc(COc2cccc(CC(=O)O)c2)c1 [Example 78, 2-[3-[5-[(5-methyl-2-phenyl-4-oxazolyl)methoxy]-3-pyridylmethoxy]phenyl]acetic acid] |  |  |
| 114 to 115 °C | 110 nM | COc1ccc(COc2cccc(CC(=O)O)c2)cc1OCc1nc(-c2ccccc2)oc1C [Example 132, 3-[4-methoxy-3-[(2-phenyl-5-methyl-4-oxazolyl)methoxy]benzyloxy]phenylacetic acid] |  |  |
| 135 to 136 °C | 940 nM | CCOc1cc(OCc2ccc(OCc3nc(-c4ccccc4)oc3C)cc2)ccc1CCC(=O)O [Example 66, 3-[2-ethoxy-4-[4-[(5-methyl-2-phenyl-4-oxazolyl)methoxy]benzyloxy]phenyl]propionic acid] |  |  |
| 119 to 120 °C | 42 nM | Cc1oc(-c2ccco2)nc1COc1ccc(COc2ccccc2CC(=O)O)cn1 [Example 124] |  |  |
| 64 to 65 °C |  | CCOC(=O)CCc1ccc(OCc2ccc(OCc3nc(-c4ccccc4)oc3C)cc2)cc1OCC [Example 65, ethyl 3-[2-ethoxy-4-[4-[(5-methyl-2-phenyl-4-oxazolyl)methoxy]benzyloxy]phenyl]propionate] |  |  |
| 207 to 208 °C |  | Cc1oc(-c2ccccc2)nc1COc1cncc(COc2ccccc2CC(=O)O)c1 [Example 43, 2-[2-[[5-[(5-methyl-2-phenyl-4-oxazolyl)methoxy]-3-pyridyl]methoxy]phenyl]acetic acid] |  |  |
| 129 to 130 °C | 260 nM | CCCc1oc(-c2ccccc2)nc1COc1ccc(COc2ccccc2CC(=O)O)cc1 [Example 85, 2-[2-[4-[(2-phenyl-5-propyl-4-oxazolyl)methoxy]benzyloxy]phenyl]acetic acid] |  |  |
| 179 to 180 °C |  | Cc1oc(-c2ccccc2)nc1COc1cccc(COc2ccc(CC(=O)O)cc2)c1 [Example 68, 2-[4-[3-[(5-methyl-2-phenyl-4-oxazolyl)methoxy]benzyloxy]phenyl]acetic acid] |  |  |
| 150 to 151 °C | 1700 nM | Cc1nn(-c2ccccn2)cc1COc1ccc(COc2ncccc2CC(=O)O)cc1 [Example 126, 2-[2-[4-[[3-methyl-1-(2-pyridyl)-1H-pyrazol-4-yl]methoxy]benzyloxy]-3-pyridyl]acetic acid] |  |  |
| 82 to 83 °C |  | CCOc1ccc(OCc2ccc(OCc3nc(-c4ccccc4)oc3C)cc2)cc1CC(=O)OC [Example 4, methyl-2-[2-ethoxy-5-[4-[(5-methyl-2-phenyl-4-oxazolyl)methoxy]benzyloxy]phenyl]acetate] |  |  |
